Calls of active or inactive are those of the source. How the calls were made is not given here.
Tested on: CCRIS mutagenicity, Ames/micronucleus/aberration tests
Assay: CCRIS mutagenicity studies
[1] = Test System: AMES SALMONELLA TYPHIMURIUM, Strain/Indicator: TA98, Metabolic Activation: HAMSTER, LIVER, S-9, AROCLOR 1254, Method: STANDARD PLATE
[2] = Test System: AMES SALMONELLA TYPHIMURIUM, Strain/Indicator: TA98, Metabolic Activation: NONE, Method: STANDARD PLATE
[3] = Test System: AMES SALMONELLA TYPHIMURIUM, Strain/Indicator: TA98, Metabolic Activation: RAT, LIVER, S-9, AROCLOR 1254, Method: STANDARD PLATE
[4] = Test System: AMES SALMONELLA TYPHIMURIUM, Strain/Indicator: TA100, Metabolic Activation: HAMSTER, LIVER, S-9, AROCLOR 1254, Method: STANDARD PLATE
[5] = Test System: AMES SALMONELLA TYPHIMURIUM, Strain/Indicator: TA100, Metabolic Activation: NONE, Method: STANDARD PLATE
[6] = Test System: AMES SALMONELLA TYPHIMURIUM, Strain/Indicator: TA100, Metabolic Activation: RAT, LIVER, S-9, AROCLOR 1254, Method: STANDARD PLATE
[7] = Test System: MOUSE LYMPHOMA, Strain/Indicator: L5178Y (TK+/TK-), Metabolic Activation: NONE, Method: SUSPENSION/PLATE
[8] = Test System: MOUSE LYMPHOMA, Strain/Indicator: L5178Y (TK+/TK-), Metabolic Activation: RAT, LIVER, S-9, AROCLOR 1254, Method: SUSPENSION/PLATE
[9] = Test System: AMES SALMONELLA TYPHIMURIUM, Strain/Indicator: TA98, Metabolic Activation: NONE, Method: PREINCUBATION
[10] = Test System: AMES SALMONELLA TYPHIMURIUM, Strain/Indicator: TA100, Metabolic Activation: NONE, Method: PREINCUBATION
[11] = Test System: AMES SALMONELLA TYPHIMURIUM, Strain/Indicator: TA100, Metabolic Activation: RAT, LIVER, S-9, AROCLOR 1254, Method: PREINCUBATION
[12] = Test System: AMES SALMONELLA TYPHIMURIUM, Strain/Indicator: TA1535, Metabolic Activation: NONE, Method: PREINCUBATION
[13] = Test System: AMES SALMONELLA TYPHIMURIUM, Strain/Indicator: TA1537, Metabolic Activation: NONE, Method: PREINCUBATION
[14] = Test System: AMES SALMONELLA TYPHIMURIUM, Strain/Indicator: TA1538, Metabolic Activation: NONE, Method: PREINCUBATION

SMILES: C=Cc1ccc(O)c(OC)c1
- mutagenic call [1]: inactive; negative
- mutagenic call [2]: inactive; negative
- mutagenic call [3]: inactive; negative
- mutagenic call [4]: inactive; negative
- mutagenic call [5]: inactive; negative
- mutagenic call [6]: inactive; negative
- mutagenic call (Test System: AMES SALMONELLA TYPHIMURIUM, Strain/Indicator: TA1535, Metabolic Activation: HAMSTER, LIVER, S-9, AROCLOR 1254, Method: STANDARD PLATE): inactive; negative
- mutagenic call (Test System: AMES SALMONELLA TYPHIMURIUM, Strain/Indicator: TA1535, Metabolic Activation: NONE, Method: STANDARD PLATE): inactive; negative
- mutagenic call (Test System: AMES SALMONELLA TYPHIMURIUM, Strain/Indicator: TA1535, Metabolic Activation: RAT, LIVER, S-9, AROCLOR 1254, Method: STANDARD PLATE): inactive; negative
- mutagenic call (Test System: AMES SALMONELLA TYPHIMURIUM, Strain/Indicator: TA1537, Metabolic Activation: HAMSTER, LIVER, S-9, AROCLOR 1254, Method: STANDARD PLATE): inactive; negative
- mutagenic call (Test System: AMES SALMONELLA TYPHIMURIUM, Strain/Indicator: TA1537, Metabolic Activation: NONE, Method: STANDARD PLATE): inactive; negative
- mutagenic call (Test System: AMES SALMONELLA TYPHIMURIUM, Strain/Indicator: TA1537, Metabolic Activation: RAT, LIVER, S-9, AROCLOR 1254, Method: STANDARD PLATE): inactive; negative
- mutagenic call [7]: inactive; negative. reevaluation of results: equivocal
- mutagenic call [8]: inactive; negative. reevaluation of results: negative

SMILES: Cc1c2c(c(C)c3ccccc13)-c1cccc3cccc-2c13
- mutagenic call (Test System: AMES SALMONELLA TYPHIMURIUM, Strain/Indicator: TA100, Metabolic Activation: RAT, LIVER, S-9, AROCLOR 1254): active; positive

SMILES: C=CC(C)(C)c1cc2cc3c(cc2oc1=O)OC(C(C)(C)O)C3 (stereo not drawn)
- mutagenic call (Test System: AMES SALMONELLA TYPHIMURIUM, Strain/Indicator: TA92, Metabolic Activation: NONE, Method: SPOT TEST): inactive; negative
- mutagenic call (Test System: AMES SALMONELLA TYPHIMURIUM, Strain/Indicator: TA92, Metabolic Activation: RAT, LIVER, S-9, AROCLOR 1254, Method: SPOT TEST): inactive; negative
- mutagenic call (Test System: AMES SALMONELLA TYPHIMURIUM, Strain/Indicator: TA94, Metabolic Activation: NONE, Method: SPOT TEST): inactive; negative
- mutagenic call (Test System: AMES SALMONELLA TYPHIMURIUM, Strain/Indicator: TA94, Metabolic Activation: RAT, LIVER, S-9, AROCLOR 1254, Method: SPOT TEST): inactive; negative
- mutagenic call (Test System: AMES SALMONELLA TYPHIMURIUM, Strain/Indicator: TA97, Metabolic Activation: NONE, Method: SPOT TEST): active; positive
- mutagenic call (Test System: AMES SALMONELLA TYPHIMURIUM, Strain/Indicator: TA97, Metabolic Activation: RAT, LIVER, S-9, AROCLOR 1254, Method: SPOT TEST): inactive; negative
- mutagenic call (Test System: AMES SALMONELLA TYPHIMURIUM, Strain/Indicator: TA98, Metabolic Activation: NONE, Method: SPOT TEST): active; positive
- mutagenic call (Test System: AMES SALMONELLA TYPHIMURIUM, Strain/Indicator: TA98, Metabolic Activation: RAT, LIVER, S-9, AROCLOR 1254, Method: SPOT TEST): inactive; negative
- mutagenic call (Test System: AMES SALMONELLA TYPHIMURIUM, Strain/Indicator: TA100, Metabolic Activation: NONE, Method: SPOT TEST): active; positive
- mutagenic call (Test System: AMES SALMONELLA TYPHIMURIUM, Strain/Indicator: TA100, Metabolic Activation: RAT, LIVER, S-9, AROCLOR 1254, Method: SPOT TEST): inactive; negative
- mutagenic call (Test System: AMES SALMONELLA TYPHIMURIUM, Strain/Indicator: TA102, Metabolic Activation: NONE, Method: SPOT TEST): inactive; negative
- mutagenic call (Test System: AMES SALMONELLA TYPHIMURIUM, Strain/Indicator: TA102, Metabolic Activation: RAT, LIVER, S-9, AROCLOR 1254, Method: SPOT TEST): inactive; negative

SMILES: CCOP(=S)(OCC)Oc1nc(Cl)c(Cl)cc1Cl
- mutagenic call (End Point: In vitro chromosomal aberrations, Test System: Human lymphocytes, Metabolic Activation: None): active; positive (structural changes and ploidy)
- mutagenic call [9]: inactive; negative
- mutagenic call (Test System: AMES SALMONELLA TYPHIMURIUM, Strain/Indicator: TA98, Metabolic Activation: RAT, LIVER, S-9, AROCLOR 1254, Method: PREINCUBATION): inactive; negative
- mutagenic call [10]: inactive; negative
- mutagenic call [11]: inactive; negative
- mutagenic call [12]: inactive; negative
- mutagenic call (Test System: AMES SALMONELLA TYPHIMURIUM, Strain/Indicator: TA1535, Metabolic Activation: RAT, LIVER, S-9, AROCLOR 1254, Method: PREINCUBATION): inactive; negative
- mutagenic call [13]: inactive; negative
- mutagenic call (Test System: AMES SALMONELLA TYPHIMURIUM, Strain/Indicator: TA1537, Metabolic Activation: RAT, LIVER, S-9, AROCLOR 1254, Method: PREINCUBATION): inactive; negative
- mutagenic call [14]: inactive; negative
- mutagenic call (Test System: AMES SALMONELLA TYPHIMURIUM, Strain/Indicator: TA1538, Metabolic Activation: RAT, LIVER, S-9, AROCLOR 1254, Method: PREINCUBATION): inactive; negative
- mutagenic call (Test System: CHINESE HAMSTER OVARY, Strain/Indicator: CHO-K1-BH4 (HGPRT)/6-THIOGUANINE, Metabolic Activation: NONE): inactive; negative
- mutagenic call (Test System: CHINESE HAMSTER OVARY, Strain/Indicator: CHO-K1-BH4 (HGPRT)/6-THIOGUANINE, Metabolic Activation: RAT, LIVER , S-9, AROCLOR 1254): inactive; negative
- mutagenic call (Test System: UDS RAT PRIMARY HEPATOCYTES, Strain/Indicator: THY INCORP, Metabolic Activation: NONE, Method: AUTORADIOGRAPHY): inactive; negative

SMILES: Oc1cccc2c3ccccc3c3cc4ccccc4cc3c12
- mutagenic call [11]: inactive; negative

SMILES: CC(=O)OCc1c(O)cc2c(c1O)C(=O)c1ccccc1C2=O
- mutagenic call [9]: active; positive
- mutagenic call (Test System: AMES SALMONELLA TYPHIMURIUM, Strain/Indicator: TA98, Metabolic Activation: RAT, LIVER, S-9, PCB, Method: PREINCUBATION): active; positive
- mutagenic call [10]: active; positive
- mutagenic call (Test System: AMES SALMONELLA TYPHIMURIUM, Strain/Indicator: TA100, Metabolic Activation: RAT, LIVER, S-9, PCB, Method: PREINCUBATION): active; positive

SMILES: [O-][n+]1c2ccc3ccccc3c2cc2c3ccccc3ccc21
- mutagenic call (Test System: AMES SALMONELLA TYPHIMURIUM, Strain/Indicator: TA100, Metabolic Activation: GUINEA PIG, LIVER, S-9, 3-METHYLCHOLANTHRENE, Method: STANDARD PLATE): inactive; negative
- mutagenic call (Test System: CHINESE HAMSTER V-79, Strain/Indicator: V-79/6-THIOGUANINE, Metabolic Activation: GUINEA PIG, LIVER, S-9, 3-METHYLCHOLANTHRENE): active; positive

SMILES: Nc1ccn([C@H]2CC[C@@H](CO)O2)c(=O)n1
- mutagenic call [1]: inactive; negative
- mutagenic call [2]: inactive; negative
- mutagenic call [3]: inactive; negative
- mutagenic call [4]: inactive; negative
- mutagenic call [5]: inactive; negative
- mutagenic call [6]: inactive; negative
- mutagenic call (Test System: MOUSE LYMPHOMA, Strain/Indicator: L5178Y (TK+/TK-), Metabolic Activation: NONE, Method: MICROWELL): inactive; negative
- mutagenic call [7]: inactive; negative. reevaluation of results: negative
- mutagenic call [8]: inactive; negative. reevaluation of results: negative
- mutagenic call (Test System: MOUSE LYMPHOMA, Strain/Indicator: L5178Y (TK+/TK-), Metabolic Activation: S-9, Method: MICROWELL): inactive; negative

SMILES: O=C(O)Cc1ccccc1[N+](=O)[O-]
- mutagenic call [9]: inactive; negative
- mutagenic call [10]: active; positive
- mutagenic call [12]: active; positive
- mutagenic call [13]: inactive; negative
- mutagenic call [14]: active; positive
